Test system: Veillonella in human gut
Assay: Veillonella level in human fecal samples by 16S rRNA sequencing before and after 2′-Fucosyllactose supplementation
Type: in vivo
Text: The genus, Veillonella, were quantified through the fecal samples collected by the human subjects. 16S ribosomal RNA (rRNA) sequencing was used to quantify the relative abundance of Veillonella in the human fecal samples. Veillonella levels were expressed as a percentage of total gut bacteria. Veillonella levels were quantified before the supplementation of 2′-Fucosyllactose and also after the supplementation of 2′-Fucosyllactose. The human subjects were asked to take 2′-Fucosyllactose daily doses ranging from 2000 mg to 4500 mg for 20-60 days with liquid and not to change their regular diet during the period. Four healthy subjects were asked to test their fecal samples and determine the baseline level of Veillonella before taking the 2′-Fucosyllactose. After collecting their initial fecal samples, they were instructed to take 2′-Fucosyllactose daily at doses between 2000 mg-4500 mg per day with liquid and not change their regular diet. The subject was asked to stop the supplementation of 2′-Fucosyllactose after 20-60 days. The subjects were instructed to collect their fecal samples immediately after stopping the supplementation and the fecal samples were tested thereafter. The levels of Veillonella in the fecal samples were quantified by 16S ribosomal RNA (rRNA) sequencing.

For 2′-Fucosyllactose, the “level of Veillonella (percentage of total gut bacteria) after 2′-Fucosyllactose intake” value (average of 4 human subjects, fecal samples, oral 2000-4500 mg daily, 30-45 days, 0.018% before intake, P<0.05) was 0.046%, the “change of the level of Veillonella in the human gut” value (daily dosages of 2000-4500 mg, after 20-60 days) was “significantly increased” and the “change of the level of Veillonella in the gut” value (human subjects, supplementation for 30-45 days, FIG. 1) was “significantly increased”.

— patent US20240350520A1, “Method to Stimulate the Growth of Veillonella in Human Gut and Increase Athletic Performance” (Mellitas Health Foods, LLC, priority 2023, published 2024)
